Measurements from patent US10799622B2, “Reducing post-operative adhesion formation with intraperitoneal glutamine” (AdeTherapeutics Inc., priority 2005, dated 2020).
Residues, ends and D or L forms follow the SMILES beside them.

Legend:
[1] = tested on: post-operative adhesion formation; assay: Modified cecal puncture abdominal surgery, histological assessment of post-operative adhesions (Example 1); format: in vivo, male Wistar rats; conditions: for complications due to intraperitoneal use: 0.3-1.5 g/kg intraperitoneally; for reducing and/or preventing post-operative adhesions (including secondary adhesions): administered intra-peritoneally; for acute inflammatory response (macrophages and macrophage chemotactic proteins): days 3-7, vs saline and non-treatment surgical groups
Method: 70 plus male Wistar rats (over 350 g each) were assessed histologically on post-operative days 1,3,5,7,10, 30, and at about 6 weeks. The rats were randomly distributed based on the mode of treatment, type of sutures and presence or absence of hemorrhage during surgery. Initially, there were three surgery groups (alanyl-glutamine treatment, saline, no treatment) plus a control (no surgery).
The rats were anaesthetized with halothane/Ketamine. Open surgery involving a midline sub-umbilical incision and a modified cecal puncture with pulstring to prevent soilage after abdominal closure was done. The procedure involved some fecal extrusion, mimicking clinical scenarios of iatrogenic/traumatic perforations of the bowel. Alanyl-glutamine [Degussa; Coubevoie, France] […] (1.5 g/kg) was instilled into the peritoneal cavity from a syringe. The cecum, abdomen, and the skin were closed in layers using the same suture. Various absorbable (3/0 Vicryl™, 3/0 Monocryl™, 3/0 PDS™, 2/0 Maxon™) and non-absorbable sutures (3/0 Prolene™, 3/0 Ethibond™, 4/0 & 5/0 Surgilene™, 3/0 Novafil™) were used. The wound was infiltrated with local anesthetic. The animals were given sufficient chow to eat (20 g/day≈2 mmole/kg/day). The gastrointestinal tract and omentum were harvested from the stomach to the sigmoid colon and fixed in formaldehyde solution for evaluation.
The severity of adhesions was assessed histologically using standard Haematoxylin & Eosin and Masson trichrome stained slides. The latter helped delineate the degree of fibrosis and collagen deposition.
Semi-quantitative analysis was done by scoring the average number of milky spots per high-power-field (HPF). Quantitative statistical analysis was done using the T-test between the experimental groups. Milky spots are a marker for inflammation and adhesion formation.

[2] = tested on: post-operative adhesion formation; assay: Surgery as in Example 1 with Marlex mesh inserted, Zuhlke adhesion score (Example 2); format: in vivo, rats; conditions: day 90
Method: Previous studies show a high incidence of adhesion formation when surgical mesh is employed as a reinforcing material [6a, 6b]. We repeated trials as described in Example 1, inserting Marlex™ mesh during the procedure on the surgical groups.
Severity of adhesions was assessed at day 90 using the adhesion score of Zuhlke, et al.. This scoring procedure has been described in the literature for assessment of other potential treatments for adhesions. […] This differs from previous measurements of adhesions using polypropylene mesh which reported up to about 90% adhesion formation [6a].

secondary adhesions = assay: Secondary adhesions after adhesiolysis in rats with mesh implants, Zuhlke score (Example 3); format: in vivo, Sprague-Dawley rats; conditions: three weeks after adhesiolysis and installation, six months after initial surgery
Method: Adhesions tend to recur once in place. We examined the effect of alanyl-glutamine treatment on such secondary adhesions. The modified caecal perforation with pulstring closure procedure described in Example 1 was performed on 9 Sprague-Dawley rats. These were divided into 5 groups, each group receiving a different form of mesh (INTERCEED™; PROCEED™; BARD™ composite; prolene; and a mesh which was allowed to be “infected” by repeated re-opening of the wound). The surgical procedure with mesh implacement was performed without application of a glutamine source. Six months after initial surgery, a laparotomy was performed on each rat then adhesiolysis followed by installation of alanyl-glutamine.

[3] = tested on: post-operative adhesion formation; assay: Modified cecal puncture abdominal surgery, histological assessment of post-operative adhesions (Example 1); format: in vivo, male Wistar rats; conditions: 0.3 g/kg intraperitoneal

NC(=O)CC[C@H](N)C(=O)O [L-glutamine]
complications due to intraperitoneal use [1]: did not observe complications | reducing and/or preventing post-operative adhesions (including secondary adhesions) ([1]; summary statement): effective | acute inflammatory response (macrophages and macrophage chemotactic proteins) [1]: reduction, but to a lesser extent

C[C@H](N)C(=O)N[C@@H](CCC(N)=O)C(=O)O [alanyl-glutamine] (H-Ala-Gln-OH)
complications due to intraperitoneal use [1]: did not observe complications | effectiveness of dosage ([1]; 1.5 g/kg intraperitoneal): effective | histological appearance of the peritoneum (adhesion) ([1]; 10th post-operative day, intraperitoneal, vs untreated and saline treated surgical groups): very minimal adhesion | reducing and/or preventing post-operative adhesions (including secondary adhesions) ([1]; summary statement): effective | milky spots per 5 high power field (5HPF) in the peritoneum ([1]; controls 1 per 5HPF, untreated surgical group 6-7): the same as the controls | acute inflammatory response (macrophages and macrophage chemotactic proteins) [1]: markedly reduced | adhesions in all the suture groups (braided and monofilament, absorbable and non-absorbable) ([1]; intraperitoneal): prevented adhesions | effect in adhesion prevention compared with L-glutamine ([1]; summary statement): more pronounced | adhesion score of Zuhlke, et al. [2]: 0-1 | recurrence of adhesions (secondary adhesions), scored according to Zuhlke, et al. (secondary adhesions): no secondary adhesions were seen | effectiveness of dosage [3]: effective
